Measurements reported in patent US7375229B2, “Dihydro-dibenzo[B,E]oxepine based selective estrogen receptor modulators, compositions and methods” (Eli Lilly and Company, priority 2002, dated 2008).

Tests used:
[1] = test system: MCF-7 breast adenocarcinoma cells; experiment: MCF-7 proliferation assay (14C-thymidine), antagonist mode; format: cell-based; settings: Homo sapiens, MCF7, with 10 pM E2
Protocol: MCF-7 breast adenocarcinoma cells (ATCC HTB 22) are maintained in MEM (minimal essential medium, phenol red-free, Gibco BRL) supplemented with 10% fetal bovine serum (FBS) (V/V), L-glutamine (2 mM), sodium pyruvate (1 mM), HEPES ((N-[2-hydroxyethyl]piperazine-N′-[2-ethanesulfonic acid] 10 mM}, non-essential amino acids (0.1 mM) and Penicillin Streptomycin (1×). Seven days prior to assay, MCF-7 cells are switched to assay media which is the same as maintenance medium except supplemented with 10% dextran-coated charcoal-stripped fetal bovine serum (DCC-FBS) assay medium in place of 10% FBS. MCF-7 cells are removed from flasks using 10× Trypsin EDTA (phenol red free, Gibco BRL) and diluted to 1× in (Ca++/Mg++ free HBSS (phenol red-free). Cells are adjusted to 80,000 cells/ml in assay medium. […] For each of the agonist plates, a basal level (media) and a maximum stimulated level (with 1 μM E2) is determined. For each of the antagonist plates, a basal level (media) and a E2 (10 pM) alone control is determined. […] The plates are incubated overnight in the same incubator and then counted on the Wallac Microbeta counter. […] For the agonist mode, an EC50 and percent of maximum E2 stimulation and concentration of maximum stimulation is calculated.

ERbeta receptor = target: T1, ERbeta receptor (Homo sapiens, UniProt Q92731); experiment: Competition binding assay with 3H-Estradiol, ERbeta receptor; settings: IC50 converted to Ki using Cheng-Prusoff equation; 3H-Estradiol competition; read-out: ER binding Ki (ERβ)
T1 construct: purchased PanVera
T1 sequence (Q92731 whole entry): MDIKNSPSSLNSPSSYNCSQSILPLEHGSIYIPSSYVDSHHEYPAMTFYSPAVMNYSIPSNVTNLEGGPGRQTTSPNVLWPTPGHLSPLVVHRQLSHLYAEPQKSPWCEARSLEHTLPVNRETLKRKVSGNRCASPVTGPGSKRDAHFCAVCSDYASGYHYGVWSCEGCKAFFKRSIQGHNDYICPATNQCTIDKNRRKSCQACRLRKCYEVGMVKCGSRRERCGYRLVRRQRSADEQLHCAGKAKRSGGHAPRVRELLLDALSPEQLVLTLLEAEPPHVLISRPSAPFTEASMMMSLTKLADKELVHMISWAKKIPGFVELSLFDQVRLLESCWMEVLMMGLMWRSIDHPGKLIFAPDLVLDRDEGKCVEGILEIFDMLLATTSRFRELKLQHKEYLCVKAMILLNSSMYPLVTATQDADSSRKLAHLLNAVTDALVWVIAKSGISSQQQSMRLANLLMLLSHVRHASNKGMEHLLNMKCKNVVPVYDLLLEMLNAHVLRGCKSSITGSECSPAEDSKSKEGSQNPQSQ
Protocol: (§1) Competition binding assay is run in a buffer containing 50 mM Hepes, pH 7.5, 1.5 mM EDTA, 150 mM NaCl, 10% glycerol, 1 mg/ml ovalbumin and 5 mM DTT, using 0.025 μCi per well ^3H-Estradiol (NEN #NET517 at 118 Ci/mmol, 1 mCi/ml), 10 ng/well ERAlpha or ERbeta receptor (PanVera). Competing compounds are added at 10 different concentrations. Non-specific binding is determined in the presence of 1 μM of 17-B Estradiol. The binding reaction (140 μl) is incubated for 4 hours at room temperature, then 70 μl of cold DCC buffer is added to each reaction (DCC buffer contains per 50 ml of assay buffer, 0.75 g of charcoal (Sigma) and 0.25 g of dextran (Pharmacia)). Plates are mixed 8 minutes on an orbital shaker at 4° C. Plates are then centrifuged at 3,000 rpm at 4° C. for 10 minutes. An aliquot of 120 μl of the mix is transferred to another 96-well, white flat bottom plate (Costar) and […] of Wallac Optiphase “Hisafe 3” scintillation fluid is added to each well. Plates are sealed and shaken vigorously on an orbital shaker. After an incubation of 2.5 hrs, read plates in a Wallac Microbeta counter. The data is used to calculate an IC50 and % Inhibition at 10 μM. The Kd for ^3H-Estradiol is determined by saturation binding to ER alpha and ER beta receptors. The IC50 values for compounds are converted to Ki using Cheng-Prusoff equation and the Kd determined by saturation binding assay.

[2] = test system: Ishikawa human endometrial tumor cells; experiment: Ishikawa cell assay (PNPP readout), agonist and antagonist modes; format: cell-based; settings: for IC50: Homo sapiens, Ishikawa, antagonist mode, with 1 nM E2; for Ishikawa Agonist % Eff: agonist mode, % efficacy versus the response to Tamoxifen
Source text: Ishikawa human endometrial tumor cells are maintained in MEM (minimum essential medium, with Earle's salts and L-Glutamine, Gibco BRL, Gaithersburg, Md.), supplemented with 10% fetal bovine serum (FBS) (V/V), (Gibco BRL). One day prior to assay, growth media is changed to assay medium, DMEM/F-12 (3:1) (Dulbecco's Modified Eagle Medium: Nutrient Mixture F-12, 3:1 Mixture, phenol red-free, Gibco BRL) supplemented with 5% dextran coated charcoal stripped fetal bovine serum (DCC-FBS) (Hyclone, Logen, Utah), L-Glutamine (2 mM), MEM sodium pyruvate (1 mM), HEPES (N-[2-hydroxyethyl]piperazine-N′-[2-ethanesulfonic acid] 2 mM) all from Gibco BRL). After an overnight incubation, ishikawa cells are rinsed with Dulbecco's Phosphate Buffered Saline (1×) (D-PBS) without Ca^+2 and Mg^+2 (Gibco BRL), and trypsinized by a 3 minute incubation with 0.25% Trypsin/EDTA, phenol red-free (Gibco BRL). Cells are resuspended in assay medium and adjusted to 250,000 cells/ml. Approximately 25,000 cells in a 100 ul media are added to flat-bottom 96 wells microculture plates (Costar 3596) and incubated at 37° C. in a 5% CO2 humidified incubator for 24 hours. The next day, serial dilutions of compounds are prepared in assay medium (at 6 times the finial concentration in the assay). The assay is run in dual mode, agonist and antagonist modes. For the agonist mode, plates receive 25 μl/well of assay medium followed by 25 μl/well of diluted compounds (at 6× the final concentrations). For the antagonist mode, plates receive 25 µl/well of 6 nM E2 (β-Estradiol, Sigma, St. Louis, Mo.) followed by 25 μl/well of diluted compounds (at 6× the final concentrations). After an additional 48-hour incubation at 37° C. in a 5% CO2 humidified incubator, media is aspirated from wells and 100 μl fresh assay medium is added to each microculture. Serial dilutions of compounds are prepared and added to the cells as described above. After an additional 72 hour incubation at 37° C. in a 5% CO2 humidified incubator, the assay is quenched by removing media and rinsing plates twice in Dulbecco's Phosphate Buffered Saline (1×) (D-PBS) (Gibco BRL). The plates are dried for 5 min and frozen at −70° C. for at least 1 hour. The plates are then removed from the freezer and allowed to thaw at room temperature. To each well, 100 μl of 1-Step™ PNPP (Pierce Chemical Company, Rockford, Ill.) is added. After a 20-minute incubation, plates are read on a spectophotometer at 405 nm. The data is fitted to a linear interpolation to derive EC50 (for agonist mode) or IC50 (for antagonist mode) values. For the agonist mode, a % efficacy for each compound is calculated versus the response to Tamoxifen. For the antagonist mode, a % efficacy for each compound is calculated versus E2 (1 nM) alone.

ERAlpha receptor = target: T2, ERAlpha receptor (Homo sapiens, UniProt P03372); experiment: Competition binding assay with 3H-Estradiol, ERAlpha receptor; settings: IC50 converted to Ki using Cheng-Prusoff equation; 3H-Estradiol competition; read-out: ER binding Ki (ERα)
T2 construct: purchased PanVera
T2 sequence (P03372 1-595): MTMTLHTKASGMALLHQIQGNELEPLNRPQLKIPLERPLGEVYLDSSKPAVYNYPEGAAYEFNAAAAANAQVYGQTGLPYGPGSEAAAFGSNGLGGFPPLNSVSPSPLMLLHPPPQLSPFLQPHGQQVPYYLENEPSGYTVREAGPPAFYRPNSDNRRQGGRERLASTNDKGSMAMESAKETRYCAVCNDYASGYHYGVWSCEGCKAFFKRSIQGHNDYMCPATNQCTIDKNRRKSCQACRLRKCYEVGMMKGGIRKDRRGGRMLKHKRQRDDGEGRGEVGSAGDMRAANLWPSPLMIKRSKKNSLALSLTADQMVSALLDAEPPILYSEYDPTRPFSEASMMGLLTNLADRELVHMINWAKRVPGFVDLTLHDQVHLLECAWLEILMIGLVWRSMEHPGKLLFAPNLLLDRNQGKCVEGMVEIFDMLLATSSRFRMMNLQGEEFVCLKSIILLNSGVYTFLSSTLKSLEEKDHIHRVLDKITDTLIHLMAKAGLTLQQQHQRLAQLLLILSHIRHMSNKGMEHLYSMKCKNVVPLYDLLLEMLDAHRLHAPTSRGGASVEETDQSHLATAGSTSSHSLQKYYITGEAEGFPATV
Protocol: as §1

| IC50 [1] [nM] | Ki (ERbeta receptor) [nM] | IC50 [2] [nM] | Ki (ERAlpha receptor) [nM] | Structure (SMILES) | Ishikawa Agonist % Eff [2] [%] |
| --- | --- | --- | --- | --- | --- |
| 8 | 1 | 19 | 1 | Oc1ccc2c3c(sc2c1)Cc1ccccc1OC3c1ccc(OCCN2CCCCC2)cc1 (stereo not shown) [Example 1, 5-[4-(2-Piperidin-1-yl-ethoxy)-phenyl]-5,11-dihydro-6-oxa-12-thia-dibenzo[a,f]azulen-2-ol] | 4 |
| 10 | 3 | 454 | 2 | Oc1ccc2c3c(ccc2c1)Cc1ccccc1OC3c1ccc(OCCN2CCCCC2)cc1 (stereo not shown) [Example 2, 13-[4-(2-Piperidin-1-yl-ethoxy)-phenyl]-7,13-dihydro-12-oxa-benzo[4,5]cyclohepta[1,2-a]naphthalen-3-ol] | 24 |
